Experimental findings from patent US11279702B2, “AMPK activators” (Kallyope, Inc., priority 2020, dated 2022) are described below.

One series has as its target BCRP (Homo sapiens (Human), UniProt Q9UNQ0). In words: in vitro. Conditions: for efflux transporter substrate assessment: Caco-2; for Efflux Ratio / Mean Papp (10^−6 cm/s) B to A / Mean Recovery (%) A to B / Mean Recovery (%) B to A / Papp B→A at 2 h, 2 μM / recovery at 2 h, 2 μM: human; for Efflux Ratio / Mean Papp (10^−6 cm/s) B to A / Mean Recovery (%) A to B / Mean Recovery (%) B to A: Caco-2, 2 h, 2 μM, pH 7.4; for Papp B→A at 2 h, 2 μM: Caco-2, pH 7.4, Mean Papp (10^−6 cm/s) B to A. Type of series: in vitro ADME. Here is the method:
Caco-2 cells purchased from ATCC were seeded onto […] (PET) in 96-well BD Insert plates at 1×10^5 cells/cm^2, and refreshed medium every 4-5 days until to the 21st to 28th day for confluent cell monolayer formation. The transport buffer in the study was HBSS with 10 mM HEPES at pH 7.40±0.05. Compounds were tested at 2 μM in the presence or absence of 30 μM novobiocin bi-directionally in duplicate. E3S was tested at 5 μM in the presence or absence of 30 μM novobiocin bi-directionally in duplicate, while nadolol and metoprolol were tested at 2 μM in the absence of novobiocin in A to B direction in duplicate. Final DMSO concentration was adjusted to less than 1%. The plate was incubated for 2 hours in CO2 incubator at 37+1° C., with 5% CO2 at saturated humidity without shaking. All samples were mixed with acetonitrile containing internal standard and were centrifuged at 4000 rpm for 10 min. Subsequently, 100 μL supernatant solution was diluted with 100 μL distilled water for LC/MS/MS analysis. Concentrations of test and control compounds in starting solution, donor solution, and receiver solution were quantified by LC/MS/MS, using peak area ratio of analyte/internal standard.

A short description of series [1]: Pharmacokinetics (oral bioavailability, IV parameters). As to conditions: mouse, in vivo, C57BL/6 mice; for bioavailability: IV 1 mg/kg, PO 30 mg/kg; for half-life / Vd: IV administration 1 mg/kg; for Vd: read-out: volume of distribution. Here is the method:
Compounds were tested for pharmacokinetics in C57BL/6 mice. Compounds 2, 4, and A1 were dosed IV at 1 mg/kg as a formulation of 0.5 mg/mL in 5% DMSO+30% PEG400+65% water and PO at 30 mg/kg as a formulation of 6 mg/mL in 0.25% MC+5% Tween 80+0.02% SDS. Compound 1 was dosed IV at 1 mg/kg as a formulation of 0.50 mg/mL in 5% DMSO+30% PEG400+65% water and PO at 30 mg/kg as a formulation of 6 mg/mL in 0.5% MC+0.5% Tween 80.

Series [2] deals with Madin-Darby Canine Kidney (MDCK) cells. In words: In vitro MDCK epithelial permeability assay (FITC-dextran, calcium switch). Type of series: cell-based. Conditions: low calcium medium, MDCK monolayers. From the text: In order to quantitatively measure the effects of transporter substrate AMPK activators on epithelial permeability in vitro, standard calcium switch protocols from the literature were adapted for use with Madin-Darby Canine Kidney (MDCK) cells grown on Corning Transwell inserts for use with fluorescein isothiocyanate-dextran, average molecular weight 4 kDa (FITC-dextran). FITC-dextran is a large, metabolically inert sugar molecule that is not readily transferrable across healthy epithelial barriers in vitro or in vivo. This compound has been tagged with a fluorophore to easily track its movement.
Briefly, MDCK cells were seeded onto Transwell inserts and grown according to manufacturer instructions until confluent. On the day of the experiment, a baseline reading was taken in standard growth media in which FITC-dextran was spiked into the apical chamber and the percent permeation of FITC-dextran from the apical to the basolateral chamber was measured. The inserts were then washed in low calcium medium (LCM) containing either vehicle or compound to remove residual FITC-dextran and calcium, and FITC-dextran was once again spiked into the apical chamber and the percent permeation in LCM was measured. Values were determined by reading fluorescence intensity on a standard plate reader and calculated by fitting back to 12-point standard curve in either growth media or LCM+vehicle, respectively. The fold induction of FITC-dextran permeation to the basolateral chamber when each well was transferred from baseline growth media to LCM was then calculated.

Series [3] addresses Recombinant AMPK α1/β1/γ1 complex (Homo sapiens (Human), UniProt Q13131+Q9Y478). In words: In vitro pAMPK1 kinase activation assay (ADP-Glo, SAMS peptide). The format is biochemical. As to conditions: for EC50: AMPK α1/β1/γ1 pre-activated with CAMKK2, 12-point curve; for activation at 10 µM: relative to reference compound MK-8722. Here is the method:
Compound effect on AMPK enzyme activation was determined in a cell-free format with a 12-point concentration curve. The ADP-Glo detection system was used to determine phosphorylation of a SAMS peptide substrate. Recombinant AMPK α1/β1/γ1 complex was pre-activated by phosphorylation with CAMKK2 followed by incubated with compound for 15 minutes prior to the SAMS phosphorylation reaction. Activity curves and EC50 values were fitted by interpolation to an ATP:ADP standard curve as indicated by the ADP-Glo manufacturer using Prism software. Activity at 10 μM is reported relative to a reference compound, MK-8722 (Science 2017, 357(6350):507-511).

Series [4] has as its system Mouse In Vivo Acute Dextran Sulfate Sodium (DSS) Colitis Model. In words: Intestinal barrier function in acute DSS colitis model (FITC-dextran). The arrangement: species or system C57Bl/6 mice. Here is the method: Vehicle or a dose of Compound A1 or Compound 1 was administered once daily by oral gavage to C57Bl/6 mice. After 3 days of pre-dosing, dextran sulfate sodium (DSS) was simultaneously administered at 2.5-3% in drinking water, and appropriate water-only controls were included.
After 6 days of DSS administration, animals treated with Compound A1 were switched back to their regular water source and a 24-hour wash-out of both DSS and compound was provided. The animals were fasted on the morning of take-down and administered a single oral bolus dose of FITC-dextran. The animals were sacrificed by cardiac puncture 4 hours after administration and plasma was collected. The concentration of FITC-dextran present in plasma was determined by measuring fluorescence intensity on a standard plate reader, and fitting values back to a standard curve.
After 7 days of DSS administration, animals treated with Compound 1 were switched back to their regular water source and the animals were administered a single oral bolus dose of FITC-dextran (FD) four hours prior to necropsy. The animals were sacrificed by cardiac puncture and serum was collected. The concentration of FITC-dextran present in serum was determined by measuring fluorescence intensity on a standard plate reader, and fitting values back to a standard curve.

The next series deals with MDCK cells. In words: Effects on tight junction (TJ) architecture, ZO-1 staining. The format is cell-based. As to conditions: 10 μM, low calcium medium (LCM). Here is the method:
MDCK cells were grown to confluence on Transwell inserts in standard growth media. The inserts were then washed and incubated in low calcium medium (LCM) with vehicle or compound (10 μM) and fixed with paraformaldehyde. Fixed cells were stained for tight junction (TJ) component proteins using commercially available antibodies and visualized on a confocal microscope (Model DM6, Leica Microsystems). As shown by zona occludens-1 (ZO-1) staining, confluent epithelial cell monolayers in standard growth media display well-organized TJs that allow the cells to form a tight seal with their neighbors, while LCM induces autonomous internalization of TJ proteins into the cytoplasm and therefore compromises the barrier function of the epithelial monolayer.

Where [5] appears, read: Caco-2, pH 7.4, Mean Recovery (%) A to B.
Setting [6] is: Caco-2, pH 7.4, Mean Recovery (%) B to A.

Where only a bound is given, the exact number is not on record here.

Recombinant AMPK α1/β1/γ1 complex, sequence (Q13131 whole entry): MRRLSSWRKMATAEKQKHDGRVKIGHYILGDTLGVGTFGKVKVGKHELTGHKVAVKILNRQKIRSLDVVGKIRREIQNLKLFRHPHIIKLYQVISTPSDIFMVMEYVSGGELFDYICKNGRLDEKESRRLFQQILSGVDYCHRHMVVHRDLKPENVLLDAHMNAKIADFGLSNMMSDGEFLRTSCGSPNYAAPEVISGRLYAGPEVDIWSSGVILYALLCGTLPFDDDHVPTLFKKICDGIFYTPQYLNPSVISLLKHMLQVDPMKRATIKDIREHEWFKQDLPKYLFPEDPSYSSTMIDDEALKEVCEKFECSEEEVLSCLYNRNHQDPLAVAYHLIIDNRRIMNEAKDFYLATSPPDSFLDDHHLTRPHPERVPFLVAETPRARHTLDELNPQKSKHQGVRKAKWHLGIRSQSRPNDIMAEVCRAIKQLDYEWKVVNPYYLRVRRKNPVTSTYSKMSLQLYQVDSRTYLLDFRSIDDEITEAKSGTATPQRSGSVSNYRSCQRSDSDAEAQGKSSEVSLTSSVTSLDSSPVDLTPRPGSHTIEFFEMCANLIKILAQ
Recombinant AMPK α1/β1/γ1 complex, sequence (Q9Y478 whole entry): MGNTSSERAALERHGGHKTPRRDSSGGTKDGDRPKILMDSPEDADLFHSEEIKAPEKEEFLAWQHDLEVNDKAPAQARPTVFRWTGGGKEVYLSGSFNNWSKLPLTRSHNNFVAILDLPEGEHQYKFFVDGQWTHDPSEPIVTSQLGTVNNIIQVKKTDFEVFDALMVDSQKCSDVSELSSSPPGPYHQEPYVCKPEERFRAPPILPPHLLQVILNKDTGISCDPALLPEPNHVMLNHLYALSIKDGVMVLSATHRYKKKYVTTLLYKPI
Recombinant AMPK α1/β1/γ1 complex, sequence (P54619 whole entry partner): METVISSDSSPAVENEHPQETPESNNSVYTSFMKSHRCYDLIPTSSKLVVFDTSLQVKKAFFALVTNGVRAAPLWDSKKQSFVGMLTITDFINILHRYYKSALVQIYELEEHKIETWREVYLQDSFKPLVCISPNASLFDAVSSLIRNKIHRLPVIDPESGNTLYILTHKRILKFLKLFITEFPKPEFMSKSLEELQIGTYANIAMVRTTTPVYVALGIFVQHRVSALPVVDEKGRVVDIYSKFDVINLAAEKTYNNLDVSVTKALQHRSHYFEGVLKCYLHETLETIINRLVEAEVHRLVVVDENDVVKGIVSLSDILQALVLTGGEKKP
BCRP, sequence (Q9UNQ0 whole entry): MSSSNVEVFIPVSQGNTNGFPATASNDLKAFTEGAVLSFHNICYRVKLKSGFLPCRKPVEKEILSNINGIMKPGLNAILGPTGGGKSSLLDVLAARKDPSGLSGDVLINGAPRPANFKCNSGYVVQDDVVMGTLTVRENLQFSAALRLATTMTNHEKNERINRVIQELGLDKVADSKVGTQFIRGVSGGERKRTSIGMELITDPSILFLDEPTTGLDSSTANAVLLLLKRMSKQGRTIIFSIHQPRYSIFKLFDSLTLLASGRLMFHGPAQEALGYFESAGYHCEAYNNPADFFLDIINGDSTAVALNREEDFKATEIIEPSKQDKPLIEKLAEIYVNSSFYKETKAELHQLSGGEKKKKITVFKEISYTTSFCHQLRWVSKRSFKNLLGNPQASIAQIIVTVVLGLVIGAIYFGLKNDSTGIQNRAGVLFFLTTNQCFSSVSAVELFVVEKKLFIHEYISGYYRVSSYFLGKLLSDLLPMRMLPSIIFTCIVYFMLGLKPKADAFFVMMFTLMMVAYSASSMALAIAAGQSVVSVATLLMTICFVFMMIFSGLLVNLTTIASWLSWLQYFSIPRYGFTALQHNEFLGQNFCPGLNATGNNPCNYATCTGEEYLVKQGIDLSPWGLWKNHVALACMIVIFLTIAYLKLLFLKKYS

With `O=C(O)CSc1nc2cc(-c3ccc(-c4ccccc4O)cc3)c(Cl)cc2[nH]1` [Compound A1], on BCRP, the “efflux transporter substrate assessment” value was “likely substrates of intestinal efflux transporters”, the “Efflux Ratio” value came to 55.54, the “Mean Papp (10^−6 cm/s) B to A” value is reported as 9.16 10^−6 cm/s and the “Mean Recovery (%) A to B” value is 61.16%. For the same compound, on BCRP, the “Mean Recovery (%) B to A” value is on record as 78.94% and the Papp B→A at 2 h, 2 μM amounted to 17.1 ×10⁻⁶ cm/s. Further, the recovery at 2 h, 2 μM on BCRP (setting [5]) was < 65.6%. At BCRP (setting [6]), this compound displayed a recovery at 2 h, 2 μM of 77.4%. Further, in series [1], the bioavailability is < 1%, the half-life is 4.8 h and the Vd amounted to 2.4 L/kg. For the same compound, the “reduction of FITC-dextran permeation relative to vehicle” value in series [2] (0.1 μM) stood at 40%. Further, in series [2] (1 μM), the “reduction of FITC-dextran permeation relative to vehicle” value stood at 61%. Besides, in series [3], the 50% effective concentration (EC50) was 200 nM and the activation at 10 µM stood at 48%. Also, the “Change in Fluorescence Intensity vs. Vehicle” value (from here on “Change”) in series [4] (30 mg/kg PO once daily, plasma, 6 days DSS then 24-hour wash-out) is reported as −60%. Besides, the “TJ architecture by zona occludens-1 (ZO-1) staining” value with MDCK cells is listed as “prevented the loss of TJ architecture”.
In the case of `O=C(O)CSc1nc2nc(-c3ccc(-c4ccccc4O)cc3)c(Cl)cc2[nH]1` [Compound 1, 2-((6-chloro-5-(2′-hydroxy-[1,1′-biphenyl]-4-yl)-1H-imidazo[4,5-b]pyridin-2-yl)thio)acetic Acid], at BCRP, the “efflux transporter substrate assessment” value is given as “likely substrates of intestinal efflux transporters”, the “Efflux Ratio” value was found to be 44.89, the “Mean Papp (10^−6 cm/s) B to A” value is given as 6.98 10^−6 cm/s and the “Mean Recovery (%) A to B” value is 69.40%. Also, on BCRP, the “Mean Recovery (%) B to A” value is on record as 82.75% and the basolateral-to-apical permeability (Papp B→A) at 2 h, 2 μM was determined as 12.7 ×10⁻⁶ cm/s. In addition, the recovery at 2 h, 2 μM on BCRP (setting [5]) is < 68.8%. For the same compound, on BCRP (setting [6]), the recovery at 2 h, 2 μM was found to be 79.5%. Besides, in series [1], the bioavailability was < 1%, the half-life was 1.9 h and the Vd turned out to be 0.7 L/kg. In addition, the “reduction of FITC-dextran permeation relative to vehicle” value in series [2] (0.1 μM) is listed as 48%. The “reduction of FITC-dextran permeation relative to vehicle” value in series [2] (1 μM) came out at 62%. Besides, in series [3], the “potency relative to Compound A1” value is on record as > 100 fold, the concentration for a half-maximal effect (EC50) is 1.4 nM and the activation at 10 µM worked out at 35%. Besides, the “Change” value in series [4] (3 mg/kg PO once daily, serum, 7 days DSS) is −35%. Further, in series [4] (10 mg/kg PO once daily, serum, 7 days DSS), the “Change” value is given as −69%. Moreover, the “Change” value in series [4] (30 mg/kg PO once daily, serum, 7 days DSS) is reported as −80%. Also, the “Change” value in series [4] (100 mg/kg PO once daily, serum, 7 days DSS) is reported as −96%. Moreover, the “TJ architecture by zona occludens-1 (ZO-1) staining” value in the series with MDCK cells is “prevented the loss of TJ architecture”.
